# Data reported in the NIST ThermoML archive (doi:10.1021/je300590v).
# Numbers after ± are expanded uncertainties.
# Conditions: Vibrating tube method
smiles,measurement,setting,value
O=C=O [carbon dioxide],mass density,"273.15 K, 1001 kPa, Gas",21.2 ± 0.2 kg/m3
same,mass density,"273.15 K, 2001 kPa, Gas",45.7 ± 0.2 kg/m3
same,mass density,"273.15 K, 3001 kPa, Gas",77.3 ± 0.2 kg/m3
same,mass density,"273.15 K, 3300 kPa, Gas",89.9 ± 0.2 kg/m3
same,mass density,"273.15 K, 3500 kPa, Liquid",928.1 ± 0.9 kg/m3
same,mass density,"273.15 K, 4001 kPa, Liquid",932.4 ± 0.9 kg/m3
same,mass density,"273.15 K, 5001 kPa, Liquid",940.7 ± 0.9 kg/m3
same,mass density,"273.15 K, 6000 kPa, Liquid",948.2 ± 0.9 kg/m3
same,mass density,"273.15 K, 7000 kPa, Liquid",955.3 ± 0.9 kg/m3
same,mass density,"273.15 K, 8003 kPa, Liquid",961.9 ± 0.8 kg/m3
same,mass density,"273.15 K, 9001 kPa, Liquid",968.1 ± 0.8 kg/m3
same,mass density,"273.15 K, 10002 kPa, Liquid",974.1 ± 0.8 kg/m3
same,mass density,"273.15 K, 11003 kPa, Liquid",979.7 ± 0.8 kg/m3
same,mass density,"273.15 K, 12000 kPa, Liquid",985.1 ± 0.8 kg/m3
same,mass density,"273.15 K, 13004 kPa, Liquid",990.1 ± 0.8 kg/m3
same,mass density,"273.15 K, 14002 kPa, Liquid",995 ± 0.8 kg/m3
same,mass density,"273.15 K, 15001 kPa, Liquid",999.7 ± 0.8 kg/m3
same,mass density,"273.15 K, 16002 kPa, Liquid",1004.3 ± 0.7 kg/m3
same,mass density,"273.15 K, 17000 kPa, Liquid",1008.6 ± 0.7 kg/m3
same,mass density,"273.15 K, 18001 kPa, Liquid",1012.8 ± 0.7 kg/m3
same,mass density,"273.15 K, 19001 kPa, Liquid",1017 ± 0.7 kg/m3
same,mass density,"273.15 K, 20000 kPa, Liquid",1020.8 ± 0.7 kg/m3
same,mass density,"283.15 K, 1000 kPa, Gas",20.4 ± 0.2 kg/m3
same,mass density,"283.15 K, 2001 kPa, Gas",43.1 ± 0.2 kg/m3
same,mass density,"283.15 K, 3001 kPa, Gas",70.9 ± 0.2 kg/m3
same,mass density,"283.15 K, 4000 kPa, Gas",108.4 ± 0.3 kg/m3
same,mass density,"283.15 K, 4400 kPa, Gas",130.1 ± 0.3 kg/m3
same,mass density,"283.15 K, 5001 kPa, Liquid",869.1 ± 1.1 kg/m3
same,mass density,"283.15 K, 6003 kPa, Liquid",882.2 ± 1 kg/m3
same,mass density,"283.15 K, 7000 kPa, Liquid",893.3 ± 1 kg/m3
same,mass density,"283.15 K, 8001 kPa, Liquid",903 ± 0.9 kg/m3
same,mass density,"283.15 K, 9001 kPa, Liquid",912.2 ± 0.9 kg/m3
same,mass density,"283.15 K, 10001 kPa, Liquid",920.4 ± 0.8 kg/m3
same,mass density,"283.15 K, 11001 kPa, Liquid",928.2 ± 0.8 kg/m3
same,mass density,"283.15 K, 12000 kPa, Liquid",935.5 ± 0.8 kg/m3
same,mass density,"283.15 K, 13001 kPa, Liquid",942.2 ± 0.8 kg/m3
same,mass density,"283.15 K, 14001 kPa, Liquid",948.3 ± 0.8 kg/m3
same,mass density,"283.15 K, 15000 kPa, Liquid",954.3 ± 0.8 kg/m3
same,mass density,"283.15 K, 16001 kPa, Liquid",960.1 ± 0.8 kg/m3
same,mass density,"283.15 K, 17001 kPa, Liquid",965.5 ± 0.8 kg/m3
same,mass density,"283.15 K, 18002 kPa, Liquid",970.8 ± 0.7 kg/m3
same,mass density,"283.15 K, 19001 kPa, Liquid",975.7 ± 0.7 kg/m3
same,mass density,"283.15 K, 20000 kPa, Liquid",980.4 ± 0.7 kg/m3
same,mass density,"293.15 K, 1011 kPa, Gas",19.8 ± 0.2 kg/m3
same,mass density,"293.15 K, 2001 kPa, Gas",41 ± 0.2 kg/m3
same,mass density,"293.15 K, 3001 kPa, Gas",66.2 ± 0.2 kg/m3
same,mass density,"293.15 K, 4000 kPa, Gas",97.3 ± 0.2 kg/m3
same,mass density,"293.15 K, 5000 kPa, Gas",140.4 ± 0.3 kg/m3
same,mass density,"293.15 K, 5600 kPa, Gas",182.2 ± 0.5 kg/m3
same,mass density,"293.15 K, 5800 kPa, Liquid",774.1 ± 1.2 kg/m3
same,mass density,"293.15 K, 6001 kPa, Liquid",783.3 ± 1.2 kg/m3
same,mass density,"293.15 K, 7003 kPa, Liquid",809.1 ± 1.1 kg/m3
same,mass density,"293.15 K, 8001 kPa, Liquid",827.5 ± 1 kg/m3
same,mass density,"293.15 K, 9002 kPa, Liquid",843.2 ± 0.9 kg/m3
same,mass density,"293.15 K, 10001 kPa, Liquid",856.1 ± 0.9 kg/m3
same,mass density,"293.15 K, 11001 kPa, Liquid",867.7 ± 0.9 kg/m3
same,mass density,"293.15 K, 12000 kPa, Liquid",877.9 ± 0.8 kg/m3
same,mass density,"293.15 K, 13000 kPa, Liquid",887.3 ± 0.8 kg/m3
same,mass density,"293.15 K, 14000 kPa, Liquid",895.9 ± 0.8 kg/m3
same,mass density,"293.15 K, 15003 kPa, Liquid",904 ± 0.8 kg/m3
same,mass density,"293.15 K, 16003 kPa, Liquid",911.5 ± 0.8 kg/m3
same,mass density,"293.15 K, 17001 kPa, Liquid",918.6 ± 0.8 kg/m3
same,mass density,"293.15 K, 18002 kPa, Liquid",925 ± 0.8 kg/m3
same,mass density,"293.15 K, 19002 kPa, Liquid",931.2 ± 0.8 kg/m3
same,mass density,"293.15 K, 20000 kPa, Liquid",937.1 ± 0.8 kg/m3
